In publication PMC12090809 (Journal of Virology, 2025):

How the values were obtained:
[1] = test system: CH058TF-infected CEM.NKr cells; format: cell-based, HIV-1
Protocol: To assess the ability of bioavailable BNM-III-170 to induce conformational changes in HIV-1 Env, we assessed the capacity of the Abs naturally elicited in these infected RMs to recognize HIV-1-infected cells before and after BNM-III-170 administration. Plasma from treated animals was incubated with CH058TF-infected CEM.NKr cells, and the ability to recognize infected cells was measured by flow cytometry. […] Importantly, as observed in uninfected RMs, plasma levels of BNM-III-170 in treated, SHIV-infected RMs closely mirrored the kinetic curves for plasma binding.
(§1) Cell surface staining was performed at 48 h post-infection. Mock-infected or HIV-1-infected CEM.NKr or primary CD4+ T cells were incubated for 45 min at 37°C with anti-Env mAbs (5 µg/mL), plasma from PWH (1:1,000 dilution), or plasma from infected RMs (1:500). When indicated, antibody/plasma incubation was done in the presence of 50 µM of BNM-III-170, or equivalent amounts of DMSO. To evaluate the capacity of plasma from SHIV-AD8-EO-infected RMs treated with BNM-III-170 to recognize HIV-1-infected cells, a 1:10 plasma dilution was used. Cells were then washed twice with PBS and stained with the appropriate Alexa Fluor 647-conjugated secondary antibody (2 µg/mL) for 20 min and the viability dye AquaVivid (Thermo Fisher Scientific) at room temperature. […]

SHIV AD8-EO [2] = experiment: Plasma viral loads (RT-qPCR) in SHIV AD8-EO-infected RMs during BNM-III-170 treatment; format: in vivo, Macaca mulatta
Protocol: Next, we evaluated the ability of BNM-III-170 to reduce viral replication in these animals, measuring plasma viral loads (PVLs) at multiple timepoints during and immediately following each BNM-III-170 treatment cycle. PVLs declined by 0.92 logs in animal 14C056 following the 3 × 36 mg/kg, 3-day interval treatment cycle (between 0 h of the first dose and 9 days post third dose). […] Importantly, given the small number of animals and absence of untreated controls, it is difficult to determine if the observed reduction in PVLs in animal 14C056 was due to BNM-III-170 treatment or to the natural course of SHIV AD8 EO-infection. This highlights the need for additional, larger studies that include an untreated control arm to more accurately determine the virologic impact of BNM-III-170 on SHIV in vivo.
Plasma SHIV viral loads (SHIV-RNA copies/mL) were determined as previously described ([61]) using quantitative reverse transcription PCR (RT-qPCR) assays with a limit of detection of 60 copies/mL.

[3] = test system: CEM.NKr-CCR5-sLTR-Luc cells infected with SHIV AD8-EO; format: cell-based
[4] = test system: CH058TF-infected CEM.NKr cells; format: cell-based, HIV-1; details: 50 μM added BNM-III-170 vs absence
Protocol: as §1, with “temperature. Cells were then washed twice with PBS and fixed in a 2% PBS-formaldehyde solution.” for “temperature.”
Measurement of ADCC using the FACS-based assay was performed at 48 h post-infection, as previously described. […] The percentage of ADCC was calculated with the following formula: (% of p24+/p27+ cells in Targets plus Effectors) − (% of p24+/p27+ cells in Targets plus Effectors plus Abs) / (% of p24+/p27+ cells in Targets) by gating on infected live target cells.

[5] = in vivo, 12 mg/kg
Protocol: BNM-III-170 levels in plasma from rhesus macaque were determined by high-performance liquid chromatography-tandem mass spectrometry (HPLC-MS/MS). Briefly, BNM-III-170 was extracted from plasma using protein precipitation. A Thermo Scientific TSQ Quantiva triple quadrupole mass spectrometer was interfaced with the Thermo Scientific Ultimate 3000XRS UHPLC system using a heated electrospray ion source (HESI). MS detection was performed in positive ion mode, using multiple reaction monitoring (MRM). The precursor-ion reactions for BNM-III-170 and IS were set to 447.3 → [226.1 + 357.1] and 262.0 → 139.1, respectively. Chromatographic separation was achieved on a Thermo Scientific Accucore RP-MS analytical column (100 × 2.1 mm I.D., 2.6 mm) maintained at 40°C using isocratic elution, which consisted of acetonitrile and 10 mM ammonium formate in water (pH 3.0) at a ratio of 20:80, respectively. The flow rate was fixed at 300 µL/min. Acquisition and analysis of data were conducted using the Xcalibur 4.0 software. Each calibration curve was comprised of a double blank (matrix without analyte or internal standard), zero standard, and eight calibration points. Calibration curves were computed from the equation y = ax + b, based on the weight of the calibration lines created from the peak-area ratios of the drug relative to the internal standard.

SHIV AD8-EO [6] = experiment: Viral infectivity / neutralization assay in TZM-bl cells with SHIV variants; details: virus incubated with BNM-III-170 (Fig. 2A)
Protocol: The viral neutralization assay was done as previously described ([56]). Briefly, TZM-bl target cells were seeded at a density of 1 × 10^4 cells/well in 96-well luminometer-compatible tissue culture plates (Perkin-Elmer Life Sciences, Waltham, MA) 24 h before infection. Then, 100 µL portions of recombinant viruses was incubated with the indicated amount of mAbs, plasma, BNM-III-170, or a mixture of mAbs and BNM-III-170 for 1 h at 37°C and then added to the target cells. After incubation for 48 h at 37°C, the medium was removed from each well, and the cells were lysed by the addition of 30 µL of passive lysis buffer (Promega) and three freeze-thaw cycles. An LB 941 TriStar luminometer (Berthold Technologies) was used to measure the luciferase activity in each well after the addition of 100 µL of luciferin buffer (15 mM MgSO4, 15 mM KPO4 [pH 7.8], 1 mM ATP, and 1 mM dithiothreitol) and 50 µL of 1 mM D-luciferin potassium salt (Prolume).

SMILES: CNCc1ccc2c(c1)C[C@H](CN=C(N)N)[C@H]2NC(=O)C(=O)Nc1ccc(Cl)c(F)c1.O=C(O)C(F)(F)F.O=C(O)C(F)(F)F [BNM-III-170]
- association of BNM-III-170 plasma concentrations with plasma binding to infected cells ([1]; each treatment cycle, Spearman correlation): correlated with plasma binding to infected cells
- time post-administration up to which RM plasma efficiently recognized infected cells ([1]; plasma from treated SHIV-infected RMs, depending on the dose used): up to 6 h
- decline in plasma viral loads (PVLs) (SHIV AD8-EO [2]; animal 14C056, 3 × 36 mg/kg SQ, 3-day interval, between 0 h of first dose and 9 days post third dose, no untreated controls): 0.92 logs
- change in plasma viral loads (PVLs) (SHIV AD8-EO [2]; animals 14C013, RYj17, 34901, following BNM-III-170 treatments): no similar changes in PVLs were observed
- binding of plasma from PWH to infected cells [3]: enhance binding of plasma from PWH
- ADCC activity of Abs in 0 h RM plasma against infected cells [4]: significantly increased
- binding of Abs in 0 h RM plasma to infected cells [4]: significantly increased
- Cmax [5]: 15300 ng/mL
- effect on SHIV AD8-EO infectivity (SHIV AD8-EO [6]): directly decrease SHIV AD8-EO infectivity
